For series [1], the system named is CM engrafted zebrafish embryos. Description: Maximum tolerated dose in CM engrafted zebrafish embryos (ectopic and orthotopic model). The series is classed as in vivo, Zebrafish (Danio rerio). As to conditions: light-activated. As for the experimental part:
To engage both CM models for testing the efficacy of TLD1433 as a potential new PDT treatment strategy to combat CM growth, first, the MTD of TLD1433 delivered into zebrafish embryos engrafted with CM cells was measured (Table 2) following the same procedure as already described for wild type embryos (Figure 5 and Table 2). Engrafted embryos were more sensitive to light-activated TLD1433 than non-engrafted embryos (Table 2). MTD concentrations of 4.6 nM and 2.3 mM were delivered by WA, IV and RO administration. […] The TLD1433 concentration in these experiments was not increased further as the initial treatment was already at the pre-determined MTD.
For determining the MTD of the WA of the TLD1433 solution in wild type zebrafish, solutions of 2.3 nM, 4.6 nM, 9.2 nM, 11.5 nM, 23 nM were made before the experiment. At 2.5, 3.5, 4.5, 5.5 dpf, TLD1433 was added to the fish water and maintained for 12 h. At 3, 4, 5, 6 dpf, the fish water was refreshed and after 1 h, embryos were exposed to green light for 90 min (520 nm, 21 mW/cm^2, 114 J/cm^2). For the IV and RO administration, TLD1433 solutions (1.15 mM, 2.3 mM, 4.6 mM, 9.2 mM, 11.5 mM) were prepared before the experiment. At 3, 4, 5, 6 dpf, 1nL of TLD1433 was injected via the dorsal vein or the RO site and maintained for 1 h. After each of the 4 injections, the embryos were exposed to green light for 90 min (520 nm, 21 mW/cm^2, 114 J/cm^2). The images of treated and wild type embryos at 6 dpf were taken using a DFC420C camera coupled to a Leica MZ16FA fluorescence microscope. In order to determine the MTD of tumour cell bearing zebrafish, TLD1433 was performed according to the same procedure, delivered by WA, IV and […] administration as described above for the wild type embryos.

Series [2] deals with CRMM2 cells injected behind the eye (RO) of zebrafish embryos. Nature of the series: Zebrafish orthotopic CM tumour model, CRMM2. Particulars: for PI (Fluorescence Intensity) / PI (Tumour Area) / Relative Tumour Burden as Measured by Fluorescence Intensity / Tumour Area: CRMM2, Orthotopic Model; for PI (Fluorescence Intensity) / PI (Tumour Area): 0 vs 114 J.cm^−2. The series is classed as in vivo, Zebrafish (Danio rerio). On the procedure: The zebrafish ectopic conjunctival melanoma tumour model has been described previously. In this model, around 200 fluorescent CM cells are injected into the Duct of Cuvier at 2 dpf, and then disseminate through the blood circulation and grow in the head and tail. To establish the orthotopic tumour model, around 100 red, (td)Tomato fluorescent CRMM1 or CRMM2 cells were injected RO at 2 dpf into tg(Fli:GFP/Casper), endothelial reporter transgenic zebrafish with green fluorescent vasculature and examined by fluorescent microscopy at day 1 and 4 after engraftment (Figure 6A). Tumour expansion at the injection site was measured as fluorescence intensity and tumour area.
For cancer cell injection, two days post-fertilization (dpf), dechorionated zebrafish embryos were anaesthetized with 0.003% tricaine (Sigma) and plated on a 10 cm Petri dish covered with 1.5% of solidified agarose. CRMM1 and CRMM2 cells were suspended in PBS containing 2% polyvinylpyrrolidone (PVP; Sigma-Aldrich) with a concentration of 50,000 cells/µL and loaded into borosilicate glass capillary needles (1 mm O.D. × 0.78 mm I.D.; Harvard Apparatus). In the ectopic model, 200 (td)Tomato fluorescent CM cells were injected into the Duct of Cuvier or at 2 dpf, which led to dissemination through the blood circulation and outgrowth in the head and tail. In orthotopic tumour model, 100 (td)Tomato fluorescent CRMM1 or CRMM2 cells were injected RO in 2 dpf embryos using a Pneumatic Picopump and a manipulator (WPI). After injection, the embryos were incubated in a 34 °C incubator. Images were acquired at 1-, 2- and 4-days post injection (dpi) with a Leica M165 FC stereo fluorescence microscope. Tumor growth was quantified by calculating the total fluorescence intensity and area with the ZF4 pixel counting program (Leiden). Each experiment was performed at least 3 times with a group size of >30 embryos.
Fluorescent CRMM1 and CRMM2 cells were injected at 2 dpf into the Duct of Cuvier (ectopic model) and behind the eye (orthotopic model) and TLD1433 was delivered by WA, IV and RO administration with or without a light treatment as described in 4.8. For the WA administration, the 4.6 nM TLD1433 solution was added to the tumour cells injected zebrafish at 2.5, 3.5, 4.5, 5.5 dpf and maintained for 12 h. At 3, 4, 5, 6 dpf, the fish water was refreshed, and after 1 h, embryos were exposed to green light for 90 min (21 mW/cm^2, 114 J/cm^2, 520 nm). For the IV and RO administration, 1 nL of 2.3 mM TLD1433 solution was injected via the dorsal vein or the RO site at 3, 4, 5, 6 dpf. After 1 h interval, the embryos were exposed to green light for 90 min (21 mW/cm^2, 114 J/cm^2, 520 nm). After treatment, the embryos images were acquired with a Leica M165 FC stereo fluorescence microscope. Tumor growth was quantified by calculating the total fluorescence intensity and area with the ZF4 pixel counting program (Leiden). Each experiment was performed at least 3 times with a group size of >30 embryos.

Setting [3] is: Intravenous (1 nL of 2.3 mM), Light Dose 0 J.cm^−2, vs control dark group (100%).
Setting [4] is: Intravenous (1 nL of 2.3 mM), Light Dose 114 J.cm^−2, vs control dark group (100%).
Setting [5] is: Water (4.6 nM), Light dose 0 J.cm^−2, vs control dark group (100%).
[6] abbreviates: Water (4.6 nM), Light dose 114 J.cm^−2, vs control dark group (100%).
Where [7] appears, read: CRMM2, orthotopic model, RO 2.3 mM, green light 114 J.cm^−2.

Structures are written as SMILES.

`Cc1ccnc(-c2cc(C)ccn2)c1.Cc1ccnc(-c2cc(C)ccn2)c1.[Cl-].[Cl-].[Ru+2].c1csc(-c2ccc(-c3ccc(-c4nc5c6cccnc6c6ncccc6c5[nH]4)s3)s2)c1` [TLD1433]: the “Maximum Tolerated Dose (MTD)” value was found to be 2.3 mM in series [1] (Intravenous 1 nL), 2.3 mM in series [1] (Retro-orbital 1 nL) and 4.6e-06 mM in series [1] (Water administration). Also, the “PI (Fluorescence Intensity)” value is reported as 1.0 in series [2] (Intravenous (1 nL of 2.3 mM)), 2.2 in series [2] (Retro-orbital (1 nL of 2.3 mM)) and 0.92 in series [2] (Water (4.6 nM)). The “PI (Tumour Area)” value worked out at 1.1 in series [2] (Intravenous (1 nL of 2.3 mM)), 3.4 in series [2] (Retro orbital (1 nL of 2.3 mM)) and 1.1 in series [2] (Water (4.6 nM)). Also, the “Relative Tumour Burden as Measured by Fluorescence Intensity” value amounted to 98% in series [2] (setting [3]); 95% in series [2] (setting [4]); 100% in series [2] (Retro-orbital (1 nL of 2.3 mM), Light Dose 0 J.cm^−2, vs control dark group (100%)); 45% in series [2] (Retro-orbital (1 nL of 2.3 mM), Light Dose 114 J.cm^−2, vs control dark group (100%)); 96% in series [2] (setting [5]); 104% in series [2] (setting [6]). The “Tumour Area” value was found to be 97% in series [2] (setting [3]); 93% in series [2] (setting [4]); 99% in series [2] (Retro orbital (1 nL of 2.3 mM), Light dose 0 J.cm^−2, vs control dark group (100%)); 29% in series [2] (Retro orbital (1 nL of 2.3 mM), Light dose 114 J.cm^−2, vs control dark group (100%)); 104% in series [2] (setting [5]); 95% in series [2] (setting [6]). The compound also showed a diminished fluorescence intensity in series [2] (setting [7]) of 55%. Also, the diminished tumour area in series [2] (setting [7]) is 71%. For the same compound, in series [2] (CRMM2, orthotopic model, WA at the MTD (4.6 nM), light 114 J.cm^−2), the “effect on tumour burden (in words)” value is “did not inhibit tumour burden”.
